The values that follow come from DBAASP.

What all share (experiment): ≥ marks a high value that may be exact or a test limit, other limits are often not marked, values filed in µg/mL are converted to µM
Assay [1] deals with Escherichia coli ATCC 25922.
The subject of assay [2] is Pseudomonas aeruginosa ATCC 27853.
Assay [3] concerns Staphylococcus aureus ATCC 29213.
The test system of assay [4] is Staphylococcus epidermidis ATCC 12228.
Assay [5] has as its system Pseudomonas aeruginosa PAO1.
The subject of a further assay is Escherichia coli.

Each structure is given as a SMILES string. Values after ≈ are worked out from the molar mass of the structure shown.

In the case of `NCC(=O)N[C@@H](CCCN=C(N)N)C(=O)N[C@@H](CCCN=C(N)N)C(=O)N1CCC[C@H]1C(=O)N[C@@H](CCCN=C(N)N)C(=O)N1CCC[C@H]1C(=O)N[C@@H](CCCN=C(N)N)C(=O)N1CCC[C@H]1C(=O)N[C@@H](CCCN=C(N)N)C(=O)N1CCC[C@H]1C(=O)N[C@@H](Cc1c[nH]c2ccccc12)C(=O)N[C@@H](Cc1c[nH]c2ccccc12)C(=O)N[C@@H](Cc1c[nH]c2ccccc12)C(N)=O` [GRRPRPRPRPWWW], the results for the minimum inhibitory concentration (MIC) in assay [1], in assay [2] and in assay [3] were 20 µM (≈ 36 µg/mL), 80 µM (≈ 144 µg/mL) and 40 µM (≈ 72.1 µg/mL), respectively.

Take `CC(C)C[C@H](NC(=O)[C@H](CC(N)=O)NC(=O)[C@H](Cc1c[nH]c2ccccc12)NC(=O)[C@H](CCCN=C(N)N)NC(=O)[C@H](C)NC(=O)[C@H](CCCCN)NC(=O)[C@H](CCCCN)NC(=O)CNC(=O)[C@H](CC(C)C)NC(=O)[C@H](Cc1ccc(O)cc1)NC(=O)[C@H](Cc1ccc(O)cc1)NC(=O)CNC(=O)[C@H](Cc1c[nH]c2ccccc12)NC(=O)[C@H](CO)NC(=O)[C@H](CO)NC(=O)[C@H](Cc1c[nH]c2ccccc12)NC(=O)[C@H](CC(C)C)NC(=O)[C@H](CCCCN)NC(=O)[C@@H](NC(=O)[C@@H](NC(=O)[C@H](CC(C)C)NC(=O)[C@@H](N)CC(=O)O)[C@@H](C)O)[C@@H](C)O)C(=O)O` [DLTTKLWSSWGYYLGKKARWNL]: in assay [4], the MIC (as a rule, the lowest concentration found to suppress growth) was 25 µM (≈ 67.2 µg/mL).

As to `CC[C@H](C)[C@H](NC(=O)[C@H](CCCN=C(N)N)NC(=O)[C@@H](NC(=O)[C@H](CCCN=C(N)N)NC(=O)[C@H](Cc1c[nH]c2ccccc12)NC(=O)[C@H](Cc1ccccc1)NC(=O)[C@H](Cc1ccccc1)NC(=O)[C@@H]1CCCN1)[C@@H](C)CC)C(=O)N[C@@H](CCCN=C(N)N)C(=O)N[C@@H](CCCN=C(N)N)C(N)=O` [PFFWRIRIRR], the minimal inhibitory concentration (MIC) in assay [1] and in assay [5] was 5.53 µM (≈ 7.99 µg/mL) in each case.

Turning to `CC[C@H](C)[C@H](NC(=O)CN)C(=O)N[C@@H](CCCCN)C(=O)N[C@@H](CCCCN)C(=O)N[C@@H](Cc1c[nH]c2ccccc12)C(=O)N[C@@H](CC(C)C)C(=O)N[C@@H](Cc1cnc[nH]1)C(=O)N[C@@H](CO)C(=O)N1CCC[C@H]1C(=O)N[C@@H](CCCCN)C(=O)N[C@@H](CCCCN)C(=O)N1CCC[C@H]1C(=O)NCC(=O)N[C@@H](CCCCN)C(=O)N[C@@H](CCCCN)C(=O)N[C@@H](Cc1ccccc1)C(=O)N[C@H](C(=O)N[C@@H](CCCCN)C(=O)N[C@@H](CCCCN)C(=O)N[C@H](C(=O)N[C@@H](CCSC)C(=O)N[C@@H](CC(N)=O)C(=O)N[C@@H](CO)C(N)=O)[C@@H](C)CC)C(C)C` [GIKKWLHSPKKPGKKFVKKIMNS], the minimal inhibitory concentration (MIC) in assay [1] is over 80 µM; in assay [4], 10 µM (≈ 26.8 µg/mL).

Take `CC[C@H](C)[C@H](NC(=O)[C@H](CCCN=C(N)N)NC(=O)[C@H](CCCCN)NC(=O)[C@@H](N)CCC(N)=O)C(=O)N[C@@H](CCCN=C(N)N)C(=O)N[C@H](C(=O)N[C@@H](CCCN=C(N)N)C(=O)N[C@@H](CC(C)C)C(=O)N[C@@H](CO)C(=O)N[C@@H](C)C(=O)O)C(C)C` [QKRIRVRLSA]: the MIC is 26.1 µM (≈ 32 µg/mL) in assay [1], 26.1 µM (≈ 32 µg/mL) in assay [2] and over 52.2 µM in assay [3].

As for `CC[C@H](C)[C@H](NC(=O)CN)C(=O)NCC(=O)N[C@@H](C)C(=O)N[C@H](C(=O)N[C@@H](CC(C)C)C(=O)N[C@@H](CCCCN)C(=O)N[C@H](C(=O)N[C@@H](CC(C)C)C(=O)N[C@H](C(=O)N[C@H](C(=O)NCC(=O)N[C@@H](CC(C)C)C(=O)N1CCC[C@H]1C(=O)N[C@@H](C)C(=O)N[C@@H](CS)C(=O)N[C@H](C(=O)N[C@@H](CO)C(=O)N[C@@H](Cc1c[nH]c2ccccc12)C(=O)N[C@@H](CS)C(=O)N[C@@H](CCCCN)C(=O)N[C@@H](CCCN=C(N)N)C(=O)N[C@@H](CCCCN)C(=O)N[C@@H](CCCN=C(N)N)C(=O)N[C@@H](CCC(N)=O)C(=O)N[C@@H](CCC(N)=O)C(=O)O)[C@@H](C)CC)[C@@H](C)O)[C@@H](C)O)C(C)C)C(C)C` [GIGAVLKVLTTGLPACISWCKRKRQQ], the minimal inhibitory concentration (MIC) in assay [1] is 10 µM (≈ 28.3 µg/mL); in the assay with Escherichia coli it was 20 µM (≈ 56.5 µg/mL); in assay [3], over 40 µM.
